Where two headings read alike, the source gives them in different places.
Biological target: SARS-CoV-2 PL^pro (Severe acute respiratory syndrome coronavirus 2, UniProt P0DTD1)
Assay: SARS-CoV-2 PL^pro enzymatic inhibition assay (substrate Z-RLRGG-AMC)
Type: biochemical
[1] = Table S2, PL^pro inhibitors, 40 nmol/L enzyme, 50 µmol/L substrate, read-out: IC50
[2] = Table S6, S/KM = 1/4, read-out: IC50 (μM) at S/KM 1/4
[3] = Table S6, S/KM = 2, read-out: IC50 (μM) at S/KM 2
[4] = Table S6, S/KM = 4, read-out: IC50 (μM) at S/KM 4
[5] = read-out: IC50 (μM) at S/KM 1/2
[6] = read-out: IC50 (μM) at S/KM 1/4
[7] = read-out: IC50 / inhibitory activity toward PL^pro
[8] = Table S3, representative dual inhibitors, read-out: IC50 for PL^pro

| Structure (SMILES) | IC50 [1] [µM] | IC50 [2] [µM] | IC50 [3] [µM] | IC50 [4] [µM] | IC50 (read-out: IC50 (μM) at S/KM 1) [µM] | IC50 [5] [µM] | IC50 [6] [µM] | IC50 (Table S6, S/KM = 1, read-out: IC50 (μM) at S/KM 1) [µM] | IC50 [7] [µM] | IC50 [8] [µM] |
| --- | --- | --- | --- | --- | --- | --- | --- | --- | --- | --- |
| CCC(C(=O)NCc1ccco1)n1c(Cc2c(Cl)cccc2Cl)nc2ccccc21 (stereo not shown) [CD3226-D010] | 8.61 ± 3.07 | 7.6 ± 1 | – | – | – | – | – | – | – | – |
| CC(C(=O)NCc1ccco1)n1c(Cc2c(Cl)cccc2Cl)nc2ccccc21 (stereo not shown) [CD3531-C011] | 1.98 ± 0.23 | – | 2.4 ± 0.2 | 2.7 ± 0.1 | 2.2 ± 0.3 | 1.5 | 1.5 ± 0.4 | – | – | – |
| O=C(NCc1n[nH]c(=S)n1-c1ccc(Br)cc1)c1ccc(Cl)cc1Cl [JK0108-D008] | 58.8 ± 15.3 | 100 ± 29.6 | 200 ± 47.6 | 133 ± 14.7 | – | 94.6 ± 11.3 | – | 102 ± 1.2 | 58.8 ± 15.3 | – |
| CCOc1cc(C(=O)NCc2n[nH]c(=S)n2-c2ccc(Br)cc2)cc(OCC)c1OCC [JK0109-B004] | 43 ± 0.92 | 2.4 ± 0.1 | 8.5 ± 0.9 | 18.3 ± 1 | 5.9 ± 0.6 | 2.6 ± 0.5 | – | – | – | 43 ± 0.9 |
| COc1ccc(-n2c(CNC(=O)COc3ccc(Cl)cc3Cl)n[nH]c2=S)cc1 [JK0109-B011] | 6.01 ± 0.02 | – | 12.4 ± 1.7 | – | 7.3 ± 0.1 | 7.4 ± 0.6 | 7.9 ± 1.7 | – | 6 | – |
| COc1ccc(-n2c(S)nnc2CNC(=O)c2cc(OC)c(OC)c(OC)c2)cc1 [JK0109-C011] | 21.2 ± 1.79 | – | 10.7 ± 0.7 | 18.6 ± 2.7 | 9.4 ± 2.9 | 7.1 ± 0.7 | 5.9 ± 0.2 | – | – | 21.2 ± 1.8 |
| O=C(COc1ccc(Cl)cc1)NCc1n[nH]c(=S)n1-c1ccc(Br)cc1 [JK0109-H005] | – | – | 78.5 ± 5.7 | 91.6 ± 8.9 | 33 ± 17.9 | 21.9 ± 2 | – | – | – | – |
| O=c1sc2ccccc2n1Cc1n[nH]c(=S)n1-c1ccccc1 [JK0946-F007] | – | – | 105 ± 4.7 | 202 ± 50.9 | 43.9 ± 9 | 30.3 ± 2.3 | – | – | – | – |

Source: article PMC9871955, “High-throughput screening of SARS-CoV-2 main and papain-like protease inhibitors” (Protein & Cell, 2022)
